Data from publication PMC9570207, “Pharmacokinetics of Myo-Inositol in a Wistar Rat Animal Model” (International Journal of Molecular Sciences, 2022).
Read-outs that look alike come from different tables or passages of the source. One block for each molecule: values may come before it.

Assays:
[1] = parameters: method as in PMID 32650579; conditions: cited from earlier work
systolic blood pressure = test system: systolic blood pressure; parameters: method as in PMID 33113433; conditions: 3 mg/kg, Wistar rats; cited from earlier work
[2] = test system: angiotensin-converting enzyme; parameters: method as in PMID 33113433; conditions: cited from earlier work
[3] = rat, in vivo, po, 25 mg/kg; cited from earlier work
[4] = test system: alkaline phosphatases from bovine intestinal mucosa; parameters: method as in doi:10.1016/S0928-0987(97)00019-5; conditions: bovine intestinal alkaline phosphatase; cited from earlier work
[5] = Pharmacokinetics of myo-inositol in serum after oral gavage, one-compartment PK model; format: in vivo, Wistar rat; conditions: 2 g/kg oral
Protocol: The experiment was performed on male Wistar rats (n = 9). We used male Wistar rats in our study because hormone changes throughout the female estrus cycle may have caused female rats to react differently, making them unpredictable and providing variable results during repeated experiments. All rats were 6 weeks old and had no morphological features deviating from the standard Wistar animal model. Animals were housed in a temperature-controlled room with a 12 h light/dark cycle and free access to water and food. The study was conducted in compliance with the Local Ethics Committee for Animal Experiments in Olsztyn. Each animal received a solution of myo-inositol (2 g/kg) in distilled water by oral gavage (Agnthos, curved gastric probe, 16G, 3 mm, 75 mm tip). The animals were fasted before the administration of myo-inositol (12 h since the last meal). Food was allowed for 2 h after administration of the compound. Access to water was unlimited. In order to reduce the amount of blood collected from a single animal, the animals were divided into three groups (n = 3).
For removing of proteins, 160 μL of acetonitrile (containing […] of xylitol, as an internal standard) was added to 50 μL of rat plasma and the sample was shaken for 5 min (1300 rpm, Vortex Genie 2, Scientific Industries, Bohemia, NY, USA). After centrifugation (20,000× g at 4 °C for 10 min), the supernatant was transferred into glass chromatographic vials and concentrated in a speed vacuum evaporator to dryness. Dry residues were derivatized with a mixture of trimethylsilylimidazole (TMSI) and pyridine (1:1, v/v). TMS-derivatives of myo-inositol were analyzed by the high-resolution gas chromatography method on a gas chromatograph GC2010Plus (Shimadzu, Tokyo, Japan) with a capillary column ZEBRON ZB-1 (15 m length, 0.25 mm diameter and 0.1 μm film thickness, Phenomenex, Torrance, CA, USA). The injector temperature was 325 °C and the initial column oven temperature was 150 °C. Helium was used as a carrier gas (at a flow rate of 1.18 mL min^−1). Afterwards, the sample injection (1 μL, in a split ratio 10:1) was ramped sequentially to 200 °C at a rate of 20 °C min^−1, to 300 °C at 30 °C min^−1 and to 335 °C at 20 °C min^−1. The final temperature was held for 2.42 min and the total time of analysis was 10 min. The detector was maintained at 350 °C. Myo-inositol was quantified by using the standard: myo-inositol from Sigma. The content of myo-inositol was calculated from the standard curves of appropriate components.
The data fitting was performed with NONMEM software (Version 7.3.0; ICON Development Solutions, Ellicot City, MD, USA) and the Gfortran compiler 9.0. NONMEM runs were executed using Wings for NONMEM (WFN730; http://wfn.sourceforge.net). The NONMEM data processing and plots were performed in Matlab Software (Version 0.1; The MathWorks, Natick, MA, USA). The schematic representation of the PK model is given in Figure 4. dA/dt=−ka∗AA(0)=DPO dX/dt=k−CL/F/V/F∗A+ka∗AX(0)=C0∗V/F where A and X denote the amount of myo-inositol in the absorption and central compartment, F denotes bioavailability, DPO denotes an oral dose of myo-inositol, ka denotes absorption rate constant, kin denotes an endogenous input of myo-inositol, CL denotes clearance, V denotes volume of distribution, and C0 denotes endogenous concentration of myo-inositol. CL and V were estimated as apparent due to uncertain bioavailability (CL/F and V/F). The steady-state concentration of myo-inositol implies the following relationship: k=C0∗CL/F
The concentration of myo-inositol in serum is given by: C=X/V/F
The observed concentrations (Cobs) were related to model predictions through the following equation (proportional residual error model): Cobs=C∗(1+ε) where ε is a normal random variable with standard deviation σ.

[6] = 100 mg/kg oral, male Wistar rats, liver

Compound: CO[C@H]1[C@H](O)[C@@H](O)[C@@H](O)[C@H](O)[C@@H]1O [DP, D-pinitol]
- Time at which plasma DP level became detectable ([1]; 100 mg/kg oral, 18 h food-deprived male Wistar rats, plasma): 10 min
- Time at which liver concentration became detectable [1, 6]: 30 min
- Time of peak liver concentration [1, 6]: 120 min
- Time of plasma peak ([1]; 100 mg/kg oral, male Wistar rats, plasma): 1 h
- Time of peak in liver ([1]; 500 mg/kg oral, Wistar rats, liver): 120 min
- Time of peak in plasma ([1]; 500 mg/kg oral, Wistar rats, plasma): 120 min
- Accumulation in the liver ([1]; oral DP, Wistar rats, liver): no accumulation was detected
- Half-life time, liver ([1]; oral DP, Wistar rats, liver): 2.57 h
- Half-life time, plasma ([1]; oral DP, Wistar rats, plasma): 1.8 h
- Time after which completely cleared ([1]; oral DP, Wistar rats): 6 h

Compound: COC1[C@H](O)[C@H](O)C(O)[C@H](O)[C@H]1O (stereo partly drawn) [LB, L-(+)-bornesitol]
- Effect on systolic blood pressure (systolic blood pressure): reduced the systolic blood pressure
- Angiotensin-converting enzyme inhibition [2]: potent
- Dose proportionality of peak concentration and AUC [3]: non-linear pharmacokinetics
- Time to peak plasma concentration [3]: approximately 1 h
- half-life [3]: 1.202 to 2.0615 h

Compound: O=P(O)(O)OC1[C@H](OP(=O)(O)O)[C@H](O)C(O)[C@H](O)[C@H]1OP(=O)(O)O (stereo partly drawn) [a-trinositol, d-myo-inositol 1,2,6-trisphosphate]
- Dephosphorylation by intestinal enzymes [4]: extensive dephosphorylation

- Evidence of harm from the dosage during the study ([5]; Wistar rats): no significant evidence of harm
- Time after which the level of MI started to drop ([5]; Wistar rats): 2 h
- Time of highest peak of MI after administration ([5]; Wistar rats): 1 h
- Serum level approximately after 24 h compared with before administration ([5]; Wistar rats, 24 h): still higher than before administration
- k el ([5]; male, rat, serum, secondary parameter, Wistar rats, read-out: Kel, Elimination rate constant, (CL/F)/(V/F) (converted)): 4.72e-05 s⁻¹
- half-life ([5]; male, rat, serum, secondary parameter, Wistar rats, read-out: T0.5, Biological half-life, ln(2)/kel (converted)): 4.08 h
- Mean MI in Rat Serum ([5]; rat 1A (ID:1), group 1, times 0, 0.25, 0.5, 1, 24 h): 45.69 µg/mL
- Mean MI in Rat Serum ([5]; rat 1B (ID:4), group 2, times 0, 2, 4, 8, 12, 24 h): 45.70 µg/mL
- Mean MI in Rat Serum ([5]; rat 1C (ID:7), group 3, times 0, 1.5, 36, 48 h): 46.23 µg/mL
- Mean MI in Rat Serum ([5]; rat 2A (ID:2), group 1, times 0, 0.25, 0.5, 1, 24 h): 60.00 µg/mL
- Mean MI in Rat Serum ([5]; rat 2B (ID:5), group 2, times 0, 2, 4, 8, 12, 24 h): 46.23 µg/mL
- Mean MI in Rat Serum ([5]; rat 2C (ID:8), group 3, times 0, 1.5, 36, 48 h): 49.38 µg/mL
- Mean MI in Rat Serum ([5]; rat 3A (ID:3), group 1, times 0, 0.25, 0.5, 1, 24 h): 57.46 µg/mL
- Mean MI in Rat Serum ([5]; rat 3B (ID:6), group 2, times 0, 2, 4, 8, 12, 24 h): 39.86 µg/mL
- Mean MI in Rat Serum ([5]; rat 3C (ID:9), group 3, times 0, 1.5, 36, 48 h): 38.33 µg/mL
- AUC, Area under concentration–time curve, F·D/CL ([5]; secondary parameter, Wistar rats): 2.34 mg·h/L/kg
Compound: O[C@H]1[C@H](O)[C@@H](O)[C@H](O)[C@@H](O)[C@H]1O [myo-inositol]
